Patent publication US4308396A, “Thromboxane A2 analogues” (priority 1979, dated 1981)
pIC50: −log10 of the molar value. Where two headings read alike, the source gives them in different places. Each block holds one molecule with its values, some of them ahead of it.

Key:
blood platelets = settings: cited from earlier work; for effect on platelet aggregation: Gorman et al, Fitzpatrick et al
[1] = test system: smooth muscle, blood vessels; settings: cited from earlier work
[2] = cited from earlier work
cat coronary arteries = test: Cat coronary artery constriction (perfused right coronary artery, constriction induced by endoperoxide analogues); type: cell-based; settings: for inhibition at 0.1 µM: analogue 100 nM
Experimental: Thromboxane A2 analogues (up to 4 μl of a 2.5 mM solution in ethanol) were tested for their effects on cat coronary arteries continuously prefused with 10 ml Krebs-Henseleit solution as described below.
Cats of either sex (2.5-3.5 kg) were anesthetized with sodium pentobarbital (30 mg/kg) given intravenously. Hearts were reapidly excised and placed in oxygenated (95% O2 +5% CO2) ice-cold Krebs-Henseleit (K-H) solution of the following millimolar composition: NaCl, 118; KCl, 4.75; CaCl2.H2 O, 2.54; KH2 PO4, 1.19; MgSO4.7H2 O, 1.19; NaHCO3, 12.5; glucose, 10.00. A 20-gauge stainless steel cannula was inserted into the right coronary artery via the coronary ostium. Distal to the cannula, approximately 1 cm of coronary artery was dissected free of surrounding tissue. The section of right coronary artery with the cannula in place was excised from the heart and immediately transferred to a constant flow perfusion apparatus.
(§1) The perfusion apparatus consists of a reservoir containing 20 ml of warm (37° C.) oxygenated (95% O2 +5% CO2) K-H solution which bathes the coronary artery and serves as recirculating perfusate. An increase in perfusion pressure indicates vasoconstriction, whereas a decrease in perfusion pressure signifies vasodilation. Following an initial 1 hr. equilibrium period, vascular responsiveness was established by adding 25 mM KCl. After washing with fresh K-H solution for 20-30 minutes, the preparation achieved a relatively constant low basal tone. Basal perfusion pressure averaged 50±2.5 mm Hg. Fresh K-H dilutions of stock thromboxane analog concentrations were added to the perfusate reservoir in 0.1-0.2 ml volumes. Changes in perfusion pressure in response to thromboxane analogue addition generally plateaus within 5 minutes of administration. Constriction of the arteries was induced by addition of 15 or 30 nM 9,11-azo-prostaglandinendoperoxide (azo-PGH2), or 1 μM 9,11-methanoepoxy-PGH2. These compounds and their effects are described in the following references: Corey et al, PNAS, U.S.A. 72, 3355 (1975); Bundy, G. L., Tetr.Lett, 1957 (1975); Malmsten, C., Life Sci, 18, 169 (1976) and Smith, J. B., et al, in Platelets and Thrombosis, Ed. by Mills, D.C.B. et al, Academic Press, London/N.Y. 1977, pp 83-95. The effect of thromboxane analogues on the release of cathepsin D from the cat liver large granule fraction was determined as described in Lefer, A. M. et al, Science 200, 52 (1978). The effect of thromboxane analogues on the release of cathepsin D from the cat liver large granule fraction was determined as described in Lefer, A. M. et al, Science 200, 52 (1978).

human platelets [3] = test: Platelet aggregation in citrated human platelet-rich plasma; type: cell-based
Experimental: (§2) Platelet aggregation was studied in an aggregometer (Chronolog Corp., Phila., PA) using 0.5 ml citrated human platelet-rich plasma at 35° C. One minute after addition of analogue (up to 2 μl of a 25 mM solution in ethanol) aggregation was initiated by addition of sodium arachidonate (0.3-0.5 mM), ADP (2 μM) collagen (1 μg/ml), epinephrine (50 μM), 9,11-azo-PGH2, (0.1-0.6 μM), 9,11-methanoepoxy-PGH2, (0.3-0.6 μM), or 9,11-epoxy methano-PGH2 (1-3 μM). The analogues were also tested for their effects on the inhibition of ADP-induced aggregation by 2 nM prostacyclin or 20 nM prostaglandin D2.

cat liver lysosomes = test: Release of cathepsin D from cat liver large granule fraction (lysosome stabilization); type: cell-based; settings: 1 μM
Experimental: as §1, with “These compounds and their effects are described in the following references: Corey et al, PNAS, U.S.A. 72, 3355 (1975); Bundy, G. L., Tetr.Lett, 1957 (1975); Malmsten, C., Life Sci, 18, 169 (1976) and Smith, J. B., et al, in Platelets and Thrombosis, Ed. by Mills, D.C.B. et al, Academic Press, London/N.Y. 1977, pp 83-95.” left out, “(1978).” for “(1978). The effect of thromboxane analogues on the release of cathepsin D from the cat liver large granule fraction was determined as described in Lefer, A. M. et al, Science 200, 52 (1978).”

thromboxane synthetase [4] = biological target: T1, thromboxane synthetase (Oryctolagus cuniculus, UniProt G1TAZ9); test: Thromboxane synthesis from 1-14C-arachidonic acid by washed rabbit platelets; type: cell-based
T1 sequence (G1TAZ9 1-530): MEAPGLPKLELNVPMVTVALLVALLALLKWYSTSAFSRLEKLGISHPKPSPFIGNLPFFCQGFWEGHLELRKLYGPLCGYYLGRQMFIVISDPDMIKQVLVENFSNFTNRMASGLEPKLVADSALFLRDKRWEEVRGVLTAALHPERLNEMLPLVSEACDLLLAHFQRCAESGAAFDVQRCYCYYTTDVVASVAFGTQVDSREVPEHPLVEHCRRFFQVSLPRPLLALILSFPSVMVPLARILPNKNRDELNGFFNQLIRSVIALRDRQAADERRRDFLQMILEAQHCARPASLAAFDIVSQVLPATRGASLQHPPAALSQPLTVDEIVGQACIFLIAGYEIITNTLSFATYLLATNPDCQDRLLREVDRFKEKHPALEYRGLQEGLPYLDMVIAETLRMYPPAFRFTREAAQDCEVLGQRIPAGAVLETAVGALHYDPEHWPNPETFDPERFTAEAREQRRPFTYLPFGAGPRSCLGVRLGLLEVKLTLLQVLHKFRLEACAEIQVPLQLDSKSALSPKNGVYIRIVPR
Experimental: (§3) To study the effects of analogues on thromboxane synthesis, rabbit platelets were washed free of plasma, resuspended in buffered saline solution and incubated at 37° C. for 5 minutes with analogues at either 10 μM or 100 μM. Radioactive 1-^14 C-arachidonic acid (0.5 μCi, SA 50 Ci/mol, New England Nuclear, Boston, Mass.) was added and incubation was continued for 15 minutes, lipids were extracted by the method of Folch, J. Biol. Chem. 226, 497 (1957), and subjected to thin layer chromatography. In additional experiments, human platelet-rich plasma was incubated at 37° C. in the aggregometer for 1 minute with analogues. Sodium arachidonate (0.4 mM) was added and incubation was continued for 5 minutes. The samples were decanted into one-tenth vol. 100 mM EDTA, centrifuged for 2 minutes at 15,000 g, and thromboxane B2 in the supernatant was determined by radioimmunoassay.

thromboxane synthetase [5] = test: Thromboxane B2 formation in human platelet-rich plasma (radioimmunoassay); type: cell-based; settings: 50 μM
Experimental: as §3

Prostacyclin Synthetase = test: Prostacyclin synthetase, sheep vesicular glands, 1-14C-arachidonic acid as substrate; type: biochemical; settings: 100 μM; Table 1
Experimental: The effects of analogues on prostacyclin synthetase were determined using sheep vesicular glands as the enzyme source and 1-^14 C-arachidonic acid as substrate essentially as described by Cottee, F. et al, in Prostaglandins, 14, 413 (1978).

human platelets [6] = test: Effect on the inhibition of ADP-induced platelet aggregation by prostacyclin or prostaglandin D2; type: cell-based
Experimental: as §2

Thromboxane Synthetase [7] = test: Thromboxane synthetase inhibition (Table 1); type: biochemical; settings: read-out: Inhibits Thromboxane Synthetase, ID50
Experimental: as §3

cyclooxygenase = test: Effect on cyclooxygenase, washed rabbit platelets; type: cell-based; settings: inferred from prostaglandin increases
Experimental: as §3

Structure (SMILES): CCCCCCC=CC1C2CC(N=N2)C1CC=CCCCC(=O)O (stereo not shown) [15-deoxy-9,11-azo-PGH2]
effect on platelet aggregation (blood platelets): inhibits platelet aggregation

Structure (SMILES): CCCCC[C@H](O)/C=C/[C@H]1O[C@H]2C[C@H](O2)[C@@H]1C/C=C\CCCC(=O)O [TA2, thromboxane A2]
thrombotic properties (blood platelets): potent thrombotic | smooth muscle constricting properties [1]: smooth muscle constricting | half-life under physiological conditions ([2]; pH 7.4 and 37° C.): 30 seconds

Structure (SMILES): CCCCCC(O)C=CC1C2CC(N=N2)C1CC=CCCCC(=O)O (stereo not shown) [9,11-azo-PGH2, 9, 11-azo prostaglandin endoperoxide, reference compound]
Mean constriction at 15 nM 9,11-azo-PGH2 (cat coronary arteries; 15 nM, three experiments): 32 mm Hg | Mean constriction at 30 nM 9,11-azo-PGH2 (cat coronary arteries; 30 nM, three experiments): 53 mm Hg | effect on platelet aggregation (blood platelets): has aggregating activity

Structure (SMILES): CCCCCC(O)C=CC1CC2CC(C1CC=CCCCC(=O)O)C2(C)C (single isomer, unassigned) [16R epimer of the analogue III (R^1 =R^2 =--OH), Pinane Thromboxane A2, free acid]
effectiveness as a prostaglandin endoperoxide antagonist, relative to the 16S epimer (human platelets [3]; compared with 16S epimer): approximately ten times less effective

pIC50 (cat coronary arteries; Felis catus, Table 1, read-out: Inhibits Coronary Artery Contraction by Prostaglandin Endoperoxide Analogues, ID50): 7.00 | pIC50 (human platelets [3]; Homo sapiens, Platelet, Table 1, read-out: Inhibits Aggregation by Prostaglandin Endoperoxide Analogues, ID50): 5.70 | inhibition at 10 µM (thromboxane synthetase [4]; 10 μM, read-out: inhibition of thromboxane B2 formation from 1-14C-arachidonic acid): 23% | inhibition at 100 µM (thromboxane synthetase [4]; 100 μM, read-out: inhibition of thromboxane B2 formation from 1-14C-arachidonic acid): 83% | radioactive prostaglandins E2, D2 and F2 α (thromboxane synthetase [4]; with thromboxane B2 inhibition): corresponding increases | effect on Prostacyclin Synthetase (Prostacyclin Synthetase): no effect | pIC50 (Thromboxane Synthetase [7]): 4.30
Structure (SMILES): CCCCCC(O)C=CC1CC2CC(C1CC=CCCCC(=O)O)C2(C)C (single isomer, unassigned) [III (R^1 =R^2 =OH, 16S), Pinane Thromboxane A2, free acid]
inhibition at 0.1 µM (cat coronary arteries; Felis catus, read-out: reduction of constriction induced by 15 nM 9,11-azo-PGH2): 73% | inhibition at 0.1 µM (cat coronary arteries; Felis catus, read-out: reduction of constriction induced by 30 nM 9,11-azo-PGH2): 50% | constriction induced by 30 nM 9,11-azo-PGH2 (cat coronary arteries; analogue 1 μm): abolished | inhibition of the release of cathepsin D from cat liver lysosomes (cat liver lysosomes; 4 experiments): significant inhibition (p<0.005) | Stabilizes Lysosomes (cat liver lysosomes; Table 1): Stabilizes Lysosomes | platelet aggregation induced by arachidonic acid (human platelets [3]; 10 μM): abolished | platelet aggregation induced by collagen (human platelets [3]; 10 μM): partially inhibited | primary aggregation induced by ADP (human platelets [3]; 10 μM): did not inhibit | primary aggregation induced by epinephrine (human platelets [3]; 10 μM): did not inhibit | second wave of aggregation induced by ADP (human platelets [3]; 10 μM): abolished | second wave of aggregation induced by epinephrine (human platelets [3]; 10 μM): abolished | arachidonic acid-induced aggregation in human platelet-rich plasma (human platelets [3]; 50 μM): abolished | aggregation induced by 9,11-azo-PGH2 (human platelets [3]; 1-15 μM, dose-dependent): inhibited | aggregation induced by 9,11-epoxymethano-PGH2 (human platelets [3]; 1-15 μM, dose-dependent): inhibited | aggregation induced by 9,11-methanoepoxy-PGH2 (human platelets [3]; 1-15 μM, dose-dependent): inhibited | reduction of thromboxane B2 formation in human platelet-rich plasma (thromboxane synthetase [5]): 50% | effect on the inhibition of aggregation by prostaglandin D2 (human platelets [6]; 10 μM): nor did it affect | effect on the Inhibition of Platelet Aggregation by Prostacyclin (human platelets [6]; Table 1): no effect | effect on the Inhibition of Platelet Aggregation by Prostaglandin D2 (human platelets [6]; Table 1): no effect | effect on cyclooxygenase (cyclooxygenase): not on cyclooxygenase

Structure (SMILES): CCCCCC(O)C=CC1C(O)CC2OC(=CCCCC(=O)O)CC21 (stereo not drawn) [Prostacyclin, 6,9α-oxido-11α, 15α-dihydroxyprosta (Z) 5, E(13)-dienoic acid]
effect on platelet aggregates after they have formed (blood platelets): destroys platelet aggregates after they have formed | inhibition of blood platelet aggregation (blood platelets; compared with all prostaglandins discovered to date): most potent inhibitor of blood platelet aggregation | dilation of blood vessels [1]: powerful action as a dilator of blood vessels | half-life under physiological conditions ([2]; pH 7.4): about 2 minutes

Structure (SMILES): CCCCCC/C=C/C1C2CC(ON2)C1C/C=C\CCCC(=O)O (stereo not shown) [15-deoxy-9,11-epoxyimino-PGH2]
effect on platelet aggregation (blood platelets): inhibits platelet aggregation
